Read-outs that look alike come from different tables or passages of the source. Values belong to the compound of their own block, whether it stands above or below them.
Legend:
[1] = molecular target: T1, PGHS-1 enzyme (Ovis aries, UniProt P05979); assay: Cyclooxygenase activity of PGHS-1, initial rate of O2 uptake (Example 4); format: biochemical, ram
T1 construct: a microsomal fraction of ram seminal vesicles containing PGHS-1 enzyme; tissue Oxford Biomedical Research (Oxford, Mich.); host or cells: ram seminal vesicles (microsomal fraction)
T1 sequence (P05979 25-600): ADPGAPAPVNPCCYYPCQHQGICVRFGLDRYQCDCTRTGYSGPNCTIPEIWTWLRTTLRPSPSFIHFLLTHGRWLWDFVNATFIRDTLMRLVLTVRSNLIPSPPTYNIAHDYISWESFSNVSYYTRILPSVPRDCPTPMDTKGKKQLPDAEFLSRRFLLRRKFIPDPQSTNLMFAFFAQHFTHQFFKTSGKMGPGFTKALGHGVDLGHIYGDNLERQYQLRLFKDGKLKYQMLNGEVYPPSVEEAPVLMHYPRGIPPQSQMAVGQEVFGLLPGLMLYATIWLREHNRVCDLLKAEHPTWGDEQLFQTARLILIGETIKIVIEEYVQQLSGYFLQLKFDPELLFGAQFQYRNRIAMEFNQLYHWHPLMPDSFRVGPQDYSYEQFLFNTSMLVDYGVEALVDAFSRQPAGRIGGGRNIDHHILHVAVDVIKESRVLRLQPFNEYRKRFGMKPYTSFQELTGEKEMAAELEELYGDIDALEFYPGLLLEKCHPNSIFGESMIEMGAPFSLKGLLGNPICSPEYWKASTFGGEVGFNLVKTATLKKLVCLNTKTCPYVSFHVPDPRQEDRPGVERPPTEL

[2] = molecular target: T2, PGHS-1 (COX-1) (Ovis aries, UniProt P05979); assay: COX-1 inhibition by flavonoids and isoflavonoids, O2 uptake (Example 5); format: biochemical; conditions: for PGHS-1 (COX-1) inhibition: at 1000 μM concentrations; for COX-1 inhibitory activity: FIG. 9, 200 μm concentrations; for COX-1 inhibitory activity among isoflavonoids: COX-1/COX-2 stated together
T2 construct: purchased Oxford Biomedical Research (Oxford, Mich., USA)
T2 sequence (P05979 25-600): T1 sequence (P05979 25-600)
Description: (§1) This is an antiinflammatory assay for cyclooxygenase inhibition activity of flavonoids and isoflavonoids. Arachidonic acid and microsomal suspensions of PGHS-1 (COX-1) and COX-2 (PGHS-2) were purchased from Oxford Biomedical Research (Oxford, Mich., USA). Genistein, genistin, naringenin, quercetin, 5,8,4′-trihydroxy-6,7-dimethoxyflavone, kaempferol-3-rutinoside and 3′-methoxy kaempferol 3-rutinoside were purified from BALATON tart cherry by HPLC and were identified by ^1H- and ^13C NMR spectral data. Daidzein and formononetin were purchased from Research Plus, Inc. (Bayonne, N.J., USA). […] Luteolin was purchased from Adams Chemical Co. (Round Lake, Ill., USA).
For measuring the COX activity, flavonoids or isoflavonoids were dissolved in DMSO to yield 40 mM stock solution and was further diluted to the desired concentration according to the COX-1/COX-2 inhibitory activity of each compound assayed.
Anti-inflammatory assay: COX activities were measured using microsomal suspensions of PGHS-1 and PGHS-2. Microsomal membranes (5 mg protein/mL in 0.1 M Tris HCl, pH 7.4) were prepared and assayed on the same day. COX-1 and COX-2 assay was performed at 37° C. controlled by a circulation bath (Model-1166, VWR Scientific Products, Chicago, Ill.) by monitoring the rate of O2 uptake using a 5357 Oxygen electrode (INSTECH Laboratory, Plymouth Meeting, Pa.) (Meade, E. A., et al., J. Biol. Chem. 268 6610-6614 (1993)).
Each assay mixture contained 600 μL of 0.1 M Tris-HCl, pH 8.0, 1 mM phenol, 17 μg hemoglobin and 10 μM arachidonate and were mixed in a microchamber (INSTECH Laboratory, Plymouth Meeting, Pa., USA). […] Reactions were initiated by adding […] of microsomal protein (5 μL). Instantaneous inhibition was determined by measuring the cyclooxygenase activity initiated by adding microsomal suspensions of PGHS-1 or PGHS-2 in the assay mixtures containing 10 μM arachidonate and various concentrations of test compounds. […] The kinetics of the enzyme activity was monitored by Biological Oxygen Monitor (YSI model 5300, Yellow Springs Instrument CO., Inc., Yellow Springs, Ohio) and collected in Quicklog Data Acquisition and Control computer software (Strawberry Tree Inc., Sunnyvale, Calif., USA).
The COX-1/COX-2 activity of BALATON cherry bioflavonoids was determined by monitoring the O2 uptake. Reactions were initiated by adding PGHS enzyme preparation. One unit of cyclooxygenase represents oxygenation of 1 nmol of arachidonate/min under the standard assay condition by the COX enzyme. This assay was a modification of the assay reported by DeWitt et al. (Dewitt D. L., et al., J. Biol. Chem. 265 5192-5198 (1990)). […] This methodology can also be used for COX-2 assay as well using COX-2 enzyme. […] COX-1 inhibitory activities of flavonoids, kaempferol, quercetin, luteolin, quercetin 3-rhamnoside, 5,8,4′-trihydroxy-6,7-dimethoxyflavone were compared. Kaempferol 3-rutinoside, 3′-methoxy kaempferol 3-rutinoside and naringenin (FIG. 9), and five isoflavonoids, genistein, genistin, daidzein, formononetin and biochanin A (FIG. 8).
COX-1/COX-2 inhibitory activities of each compound at different concentrations was calculated by comparing the tangent of O2 uptake curves of test compounds with that of blank control. Each assay was repeated 3 times and the IC50 values (50 inhibitory concentrations) were calculated by linear regression analysis.

[3] = molecular target: T3, COX-2 (PGHS-2) (Homo sapiens, UniProt P35354); assay: COX-2 inhibition by flavonoids and isoflavonoids, O2 uptake (Example 5); format: biochemical; conditions: COX-1/COX-2 stated together
T3 construct: purchased Oxford Biomedical Research (Oxford, Mich., USA)
T3 sequence (P35354 18-604): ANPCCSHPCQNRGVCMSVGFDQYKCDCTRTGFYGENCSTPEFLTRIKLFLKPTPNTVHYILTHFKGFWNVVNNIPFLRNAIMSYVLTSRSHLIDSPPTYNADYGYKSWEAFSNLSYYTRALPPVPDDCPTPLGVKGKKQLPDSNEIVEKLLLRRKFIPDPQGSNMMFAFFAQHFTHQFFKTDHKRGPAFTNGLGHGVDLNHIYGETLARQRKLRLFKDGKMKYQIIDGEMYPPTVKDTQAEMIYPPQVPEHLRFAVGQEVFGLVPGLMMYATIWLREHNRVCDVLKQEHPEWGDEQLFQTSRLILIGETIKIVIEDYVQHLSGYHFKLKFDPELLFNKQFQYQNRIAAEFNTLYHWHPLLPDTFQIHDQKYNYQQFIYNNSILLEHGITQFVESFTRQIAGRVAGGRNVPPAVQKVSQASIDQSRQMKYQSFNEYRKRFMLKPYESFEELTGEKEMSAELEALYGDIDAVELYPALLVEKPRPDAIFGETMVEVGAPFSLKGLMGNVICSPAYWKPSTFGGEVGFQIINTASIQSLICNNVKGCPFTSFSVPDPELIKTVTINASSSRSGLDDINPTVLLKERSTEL
Description: as §1, with “Ill., USA). […]” for “Ill., USA).”
Anti-inflammatory assay: COX activities were measured using microsomal suspensions of PGHS-1 and PGHS-2. […]
Each assay mixture contained 600 μL of 0.1 M Tris-HCl, pH 8.0, 1 mM phenol, 17 μg hemoglobin and 10 μM arachidonate and were mixed in a microchamber (INSTECH Laboratory, Plymouth Meeting, Pa., USA). […] Instantaneous inhibition was determined by measuring the cyclooxygenase activity initiated by adding microsomal suspensions of PGHS-1 or PGHS-2 in the assay mixtures containing 10 μM arachidonate and various concentrations of test compounds. […]
The COX-1/COX-2 activity of BALATON cherry bioflavonoids was determined by monitoring the O2 uptake. […]

[4] = Sanchez De Medina et al. 1996; cited from earlier work
[5] = test system: cyclooxygenase; conditions: cited from earlier work; for COX inhibition: literature reports
[6] = Tsuda et al. 1994; cited from earlier work
[7] = mean of triplicate, FIGS. 10 and 11, read-out: IC50 for inhibition of PGHS-1 enzyme (COX-1)

Compound: COc1cc(-c2oc3cc(O)cc(O)c3c(=O)c2O[C@@H]2O[C@H](CO[C@@H]3O[C@@H](C)[C@H](O)[C@@H](O)[C@H]3O)[C@@H](O)[C@H](O)[C@H]2O)ccc1O [3′-methoxy kaempferol 3-rutinoside]
PGHS-1 (COX-1) inhibition [2]: not active

Compound: C[C@@H]1O[C@@H](Oc2c(-c3ccc(O)c(O)c3)oc3cc(O)cc(O)c3c2=O)[C@H](O)[C@H](O)[C@H]1O [quercetin 3-rhamnoside]
COX-1 inhibitory activity [2]: not active
in vivo anti-inflammatory activity [4]: reported to have in vivo anti-inflammatory activity

Compound: O=c1cc(-c2ccccc2)oc2ccccc12 [unsubstituted flavone, flavone]
COX inhibition [5]: good COX inhibitor

Compound: C[C@H]1O[C@H](OC[C@H]2O[C@@H](Oc3c(-c4ccc(O)cc4)oc4cc(O)cc(O)c4c3=O)[C@H](O)[C@@H](O)[C@@H]2O)[C@@H](O)[C@@H](O)[C@@H]1O [Kaempferol 3-rutinoside]
PGHS-1 (COX-1) inhibition [2]: not active

Compound: O=c1c(O)c(-c2ccccc2)oc2cc(O)cc(O)c12 [galangin]
IC50 ([5]; Wurm et al. 1982, read-out: IC50 cyclooxygenase inhibition): 5.5 µM

Compound: O=c1c(-c2ccc(O)cc2)coc2cc(O)ccc12 [daidzein]
IC50 [2]: 400 µM

Compound: CC(C)=CCc1c(-c2ccc(O)cc2O)oc2c3c(cc(O)c2c1=O)OC(C)(C)C=C3 [morusin]
COX inhibition [5]: active

Compound: O=c1c(O)c(-c2ccc(O)c(O)c2)oc2cc(O)cc(O)c12 [quercetin]
PGHS-1 (COX-1) inhibition [2]: not active
IC50 [2, 7]: 350 µM

Compound: OC[C@H]1O[C@@H](Oc2cc3c(O)cc(O)cc3[o+]c2-c2ccc(O)c(O)c2)[C@H](O)[C@@H](O)[C@@H]1O [cyanidin-3-glucoside]
antioxidant activities [6]: strong antioxidant activities

Compound: COc1c(OC)c(O)c2c(=O)cc(-c3ccc(O)cc3)oc2c1O [5,8,4′-trihydroxy-6,7-dimethoxyflavone]
COX-1 inhibitory activity [2]: little or no COX-1 inhibition
PGHS-1 (COX-1) inhibition [2]: not active

Compound: C[C@@H]1O[C@@H](OC[C@H]2O[C@@H](Oc3cc4c(O)cc(O)cc4[o+]c3-c3ccc(O)c(O)c3)[C@H](O[C@@H]3O[C@H](CO)[C@@H](O)[C@H](O)[C@H]3O)[C@@H](O)[C@@H]2O)[C@H](O)[C@H](O)[C@H]1O [anthocyanin 1]
effect on activity of enzyme at higher concentrations ([1]; higher concentrations than 300-nM, enzyme (PGHS-1/PGHS-2) not specified): increased the activity of enzyme

Results, then the compound that gave them:

IC50 ([1]; inhibition of cyclooxygenase activity, FIG. 7): 90 µM
Compound: Oc1cc(O)c2cc(O)c(-c3ccc(O)c(O)c3)[o+]c2c1 [cyanidin]

COX-1 inhibitory activity [2]: highest COX-1 inhibition
IC50 [2, 7]: 180 µM
Compound: O=c1c(O)c(-c2ccc(O)cc2)oc2cc(O)cc(O)c12 [kaempferol]

COX-1 inhibitory activity [2]: dramatically decreased
Compound: O=C1C[C@@H](c2ccc(O)cc2)Oc2cc(O)cc(O)c21 [naringenin]

COX-1 inhibitory activity among isoflavonoids [2]: dramatically decreased
COX-2 inhibitory activity among isoflavonoids [3]: dramatically decreased
Compound: O=c1c(-c2ccc(O)cc2)coc2cc(O[C@@H]3O[C@H](CO)[C@@H](O)[C@H](O)[C@H]3O)cc(O)c12 [genistin]

IC50 [2, 7]: 350 µM
Compound: COc1ccc(-c2coc3cc(O)cc(O)c3c2=O)cc1 [biochanin A]

IC50 [2, 7]: 300 µM
Compound: O=c1cc(-c2ccc(O)c(O)c2)oc2cc(O)cc(O)c12 [luteolin]

IC50 [2]: 80 µM
COX-1 inhibitory activity among isoflavonoids [2]: highest COX-1/COX-2 inhibitory activity
COX-2 inhibitory activity among isoflavonoids [3]: highest COX-1/COX-2 inhibitory activity
Compound: O=c1c(-c2ccc(O)cc2)coc2cc(O)cc(O)c12 [genistein]

From patent US6576271B2, “Method for inhibiting inflammation using bioflavonoids” (Board of Trustees operating Michigan State University, priority 1998, dated 2003)
